Type in all cases: in vivo
The subject of experiment [1] is Lolium perenne (LOLPE). Put plainly: Pre-emergence herbicidal glasshouse test, Lolium perenne. The note with it: 312 h, rate 250 g/ha, evaluated after 13 days, scale 100 = total damage to plant, 0 = no damage. In outline:
(§1)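 Visual damage scores (0 = undamaged, top = plant totally killed) were taken 13 days after spraying. Treatment was given one day after sowing or at day 8 of cultivation, under 24/16° C. glasshouse conditions.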

For experiment [2], the system named is Alopecurus myosuroides (ALOMY). Put plainly: Pre-emergence herbicidal glasshouse test, Alopecurus myosuroides. The settings on record: Alopecurus myosuroides, 312 h, rate 250 g/ha, evaluated after 13 days, scale 100 = total damage to plant, 0 = no damage. Put shortly: as §1
For experiment [3], the system named is Echinochloa crus-galli (ECHCG). The experiment is described as follows: Pre-emergence herbicidal glasshouse test, Echinochloa crus-galli. The note with it: Echinochloa crus-galli, 312 h, rate 250 g/ha, evaluated after 13 days, scale 100 = total damage to plant, 0 = no damage. Put shortly: as §1
Experiment [4] deals with Avena fatua (AVEFA). Put plainly: Pre-emergence herbicidal glasshouse test, Avena fatua. The note with it: Avena fatua, 312 h, rate 250 g/ha, evaluated after 13 days, scale 100 = total damage to plant, 0 = no damage. In outline: as §1
The subject of experiment [5] is Lolium perenne (LOLPE). The experiment is described as follows: Post-emergence herbicidal glasshouse test, Lolium perenne. The settings on record: 312 h, rate 250 g/ha, evaluated after 13 days, scale 100 = total damage to plant, 0 = no damage. Put shortly: as §1
The test system of experiment [6] is Alopecurus myosuroides (ALOMY). The experiment is described as follows: Post-emergence herbicidal glasshouse test, Alopecurus myosuroides. The note with it: Alopecurus myosuroides, 312 h, rate 250 g/ha, evaluated after 13 days, scale 100 = total damage to plant, 0 = no damage. In outline:
as §1

Experiment [7] concerns Echinochloa crus-galli (ECHCG). The experiment is described as follows: Post-emergence herbicidal glasshouse test, Echinochloa crus-galli. The note with it: Echinochloa crus-galli, 312 h, rate 250 g/ha, evaluated after 13 days, scale 100 = total damage to plant, 0 = no damage. In outline: as §1
The subject of experiment [8] is Avena fatua (AVEFA). The experiment is described as follows: Post-emergence herbicidal glasshouse test, Avena fatua. The settings on record: Avena fatua, 312 h, rate 250 g/ha, evaluated after 13 days, scale 100 = total damage to plant, 0 = no damage. Put shortly:
as §1

As usually defined, the pest or weed control is the degree to which the test organism was suppressed or injured, in per cent. Low readings indicate a weak effect, high ones a strong effect. As to `CCc1cc(-c2ccc(F)cc2)ccc1C1=C(O)C(C)(C)OC(C)(C)C1=O` [Compound A-50], the pest or weed control at 250 g/ha in the experiment with Lolium perenne (LOLPE) [1] was found to be 100%; in experiment [2], 60%; in experiment [3] it was 90%; with Avena fatua (AVEFA) [4], 60%; in the experiment with Lolium perenne (LOLPE) [5] it was 100%; in experiment [6] it was 90%. The pest or weed control at 250 g/ha in experiment [7] was 100%; with Avena fatua (AVEFA) [8], 80%.

On to `CCc1cc(-c2cc(Cl)cc(Cl)c2)ccc1C1=C(O)C(C)(C)OC(C)(C)C1=O` [Compound A-99], for which the pest or weed control at 250 g/ha in the experiment with Lolium perenne (LOLPE) [1] was determined as 60%; in experiment [2] it was 10%; in experiment [3] it was 30%; in the experiment with Avena fatua (AVEFA) [4], 0%; in the experiment with Lolium perenne (LOLPE) [5], 90%; in experiment [6], 90%. Moreover, the pest or weed control at 250 g/ha in experiment [7] worked out at 100%; with Avena fatua (AVEFA) [8], 90%.

For the molecule `CCc1cc(-c2cc(F)c(F)cc2F)ccc1C1=C(O)C(C)(CC)OC(C)(CC)C1=O` (stereo not drawn) [Compound A-132], the pest or weed control at 250 g/ha in the experiment on Lolium perenne (LOLPE) [1] was 20%; in experiment [2] it was 20%; in experiment [3], 10%; with Avena fatua (AVEFA) [4], 0%; with Lolium perenne (LOLPE) [5] it was 50%; in experiment [6], 60%. Moreover, the results for the pest or weed control at 250 g/ha (in experiment [7]; in the experiment on Avena fatua (AVEFA) [8]) were 80% and 0%, respectively.

Turning to `CCc1cc(-c2cc(F)c(F)c(F)c2)ccc1C1=C(O)C(C)(C)OC(C)(C)C1=O` [Compound A-84], the pest or weed control at 250 g/ha with Lolium perenne (LOLPE) [1] amounted to 70%; in experiment [2] it was 30%; in experiment [3], 30%; in the experiment with Avena fatua (AVEFA) [4], 40%; with Lolium perenne (LOLPE) [5], 100%; in experiment [6], 80%. The pest or weed control at 250 g/ha (in experiment [7]; in the experiment with Avena fatua (AVEFA) [8]) was 100% in each case.

Take `CCc1cc(-c2ccc(F)cc2F)ccc1C1=C(O)C(C)(C)OC(C)(C)C1=O` [Compound A-82]: the pest or weed control at 250 g/ha is 70% with Lolium perenne (LOLPE) [1]; 10% in experiment [2]; 30% in experiment [3]; 20% in the experiment with Avena fatua (AVEFA) [4]; 80% in the experiment with Lolium perenne (LOLPE) [5]; 80% in experiment [6]. In addition, the pest or weed control at 250 g/ha in experiment [7] was 80%; with Avena fatua (AVEFA) [8], 0%.

As for `CCc1cc(-c2cc(F)c(F)c(F)c2)ccc1C1=C(O)C2(CCCC2)OC(C)(C)C1=O` [Compound A-126], the pest or weed control at 250 g/ha came to 10% in the experiment on Lolium perenne (LOLPE) [1]; 10% in experiment [2]; 10% in experiment [3]; 0% with Avena fatua (AVEFA) [4]; 40% in the experiment with Lolium perenne (LOLPE) [5]; 40% in experiment [6]. For the same molecule, the pest or weed control at 250 g/ha in experiment [7] came out at 70%; in the experiment on Avena fatua (AVEFA) [8] it was 20%.

With `CCc1cc(-c2cc(F)c(F)c(F)c2)ccc1C1=C(O)C(C)(COC)OC(C)(C)C1=O` (stereo not drawn) [Compound A-114], the pest or weed control at 250 g/ha in the experiment with Lolium perenne (LOLPE) [1] stood at 100%; in experiment [2] it was 90%; in experiment [3], 100%; in the experiment with Avena fatua (AVEFA) [4] it was 90%; in the experiment on Lolium perenne (LOLPE) [5], 100%; in experiment [6] it was 90%. Further, the pest or weed control at 250 g/ha in experiment [7] was found to be 100%; in the experiment with Avena fatua (AVEFA) [8], 90%.

In the case of `CCc1cc(-c2cc(F)c(F)c(F)c2)ccc1C1=C(O)C(C)(C)C(=O)C(C)(C)C1=O` [Compound C-5], the pest or weed control at 250 g/ha with Lolium perenne (LOLPE) [1] turned out to be 40%; in experiment [2], 30%; in experiment [3] it was 0%; in the experiment with Avena fatua (AVEFA) [4], 20%; with Lolium perenne (LOLPE) [5] it was 70%; in experiment [6], 100%. In addition, the pest or weed control at 250 g/ha amounted to 100% in experiment [7] and 90% in the experiment on Avena fatua (AVEFA) [8].

Consider `CCc1cc(-c2cc(F)cc(Cl)c2)ccc1C1=C(O)C(C)(C)OC(C)(C)C1=O` [Compound A-60], for which the pest or weed control at 250 g/ha in the experiment with Lolium perenne (LOLPE) [1] is 0%; in experiment [2], 0%; in experiment [3], 0%; in the experiment on Avena fatua (AVEFA) [4], 0%; in the experiment with Lolium perenne (LOLPE) [5], 70%; in experiment [6], 60%. Besides, the values for the pest or weed control at 250 g/ha (in experiment [7]; with Avena fatua (AVEFA) [8]) were 90% and 70%, respectively.

With `CCc1cc(-c2ccc(F)cc2)ccc1C1=C(OC(C)=O)C(C)(C)OC(C)(C)C1=O` [Compound D-3], the pest or weed control at 250 g/ha with Lolium perenne (LOLPE) [1] was 100%; in experiment [2], 90%; in experiment [3], 100%; in the experiment on Avena fatua (AVEFA) [4], 70%; with Lolium perenne (LOLPE) [5], 100%; in experiment [6] it was 100%. Also, the pest or weed control at 250 g/ha came to 100% in experiment [7] and 80% with Avena fatua (AVEFA) [8].

As for `CCc1cc(-c2ccc(F)c(F)c2)ccc1C1=C(O)C(C)(CC)OC(C)(C)C1=O` (stereo not drawn) [Compound A-119], the pest or weed control at 250 g/ha in the experiment on Lolium perenne (LOLPE) [1] worked out at 60%; in experiment [2], 40%; in experiment [3] it was 30%; in the experiment on Avena fatua (AVEFA) [4], 10%; in the experiment with Lolium perenne (LOLPE) [5], 90%; in experiment [6] it was 100%. Also, the pest or weed control at 250 g/ha in experiment [7] is 100%; in the experiment on Avena fatua (AVEFA) [8] it was 90%.

Take `CCc1cc(-c2ccc(Cl)c(Cl)c2)ccc1C1=C(OC(C)=O)C(C)(C)OC(C)(C)C1=O` [Compound D-2]: the pest or weed control at 250 g/ha was 100% in the experiment on Lolium perenne (LOLPE) [1]; 30% in experiment [2]; 90% in experiment [3]; 20% in the experiment with Avena fatua (AVEFA) [4]; 80% with Lolium perenne (LOLPE) [5]; 70% in experiment [6]. For the same molecule, the pest or weed control at 250 g/ha was found to be 90% in experiment [7] and 40% in the experiment on Avena fatua (AVEFA) [8].

With `CCc1cc(-c2ccc(F)c(F)c2)ccc1C1=C(O)C(C)(C)C(=O)C(C)(C)C1=O` [Compound C-4], the pest or weed control at 250 g/ha with Lolium perenne (LOLPE) [1] turned out to be 20%; in experiment [2], 20%; in experiment [3], 0%; in the experiment on Avena fatua (AVEFA) [4], 0%; in the experiment on Lolium perenne (LOLPE) [5], 80%; in experiment [6], 80%. For the same molecule, the pest or weed control at 250 g/ha came to 70% in experiment [7] and 30% in the experiment on Avena fatua (AVEFA) [8].

Take `CCc1cc(-c2cc(F)c(F)c(F)c2)ccc1C1=C(O)C(C)(CC)OC(C)(C)C1=O` (stereo not drawn) [Compound A-120]: the pest or weed control at 250 g/ha with Lolium perenne (LOLPE) [1] is 90%; in experiment [2], 60%; in experiment [3] it was 70%; in the experiment with Avena fatua (AVEFA) [4], 40%; in the experiment with Lolium perenne (LOLPE) [5], 100%; in experiment [6] it was 100%. For the same molecule, the pest or weed control at 250 g/ha (in experiment [7]; in the experiment on Avena fatua (AVEFA) [8]) was 100% in each case.

As to `CCc1cc(-c2cc(Cl)cc(C(F)(F)F)c2)ccc1C1=C(O)C(C)(C)OC(C)(C)C1=O` [Compound A-83], the pest or weed control at 250 g/ha in the experiment with Lolium perenne (LOLPE) [1] came to 0%; in experiment [2], 0%; in experiment [3] it was 0%; in the experiment on Avena fatua (AVEFA) [4], 0%; in the experiment with Lolium perenne (LOLPE) [5] it was 70%; in experiment [6], 80%. The pest or weed control at 250 g/ha in experiment [7] amounted to 80%; with Avena fatua (AVEFA) [8], 50%.

`CCc1cc(-c2ccc(F)c(F)c2F)ccc1C1=C(O)C(C)(CC)OC(C)(CC)C1=O` (stereo not drawn) [Compound A-133]: the pest or weed control at 250 g/ha stood at 30% with Lolium perenne (LOLPE) [1]; 30% in experiment [2]; 0% in experiment [3]; 0% in the experiment with Avena fatua (AVEFA) [4]; 50% in the experiment with Lolium perenne (LOLPE) [5]; 60% in experiment [6]. For the same molecule, the values for the pest or weed control at 250 g/ha (in experiment [7]; with Avena fatua (AVEFA) [8]) were 60% and 20%, respectively.

On to `CCc1cc(-c2ccc(F)c(OC)c2)ccc1C1=C(O)C(C)(C)OC(C)(C)C1=O` [Compound A-78], for which the pest or weed control at 250 g/ha in the experiment with Lolium perenne (LOLPE) [1] came out at 80%; in experiment [2], 20%; in experiment [3] it was 0%; in the experiment on Avena fatua (AVEFA) [4], 30%; in the experiment with Lolium perenne (LOLPE) [5], 100%; in experiment [6], 80%. The pest or weed control at 250 g/ha in experiment [7] came to 100%; in the experiment with Avena fatua (AVEFA) [8], 90%.

Regarding `CCc1cc(-c2ccc(F)c(F)c2F)ccc1C1=C(O)C(C)(C)SC(C)(C)C1=O` [Compound B-9], the pest or weed control at 250 g/ha in the experiment with Lolium perenne (LOLPE) [1] turned out to be 10%; in experiment [2], 10%; in experiment [3], 0%; in the experiment on Avena fatua (AVEFA) [4], 0%; in the experiment on Lolium perenne (LOLPE) [5], 60%; in experiment [6], 60%. The results for the pest or weed control at 250 g/ha (in experiment [7]; in the experiment with Avena fatua (AVEFA) [8]) were 40% and 80%, respectively.

For the origin of these results see US8895761B2, “4-phenylpyrane-3,5-diones, 4-phenylthiopyrane-3,5-diones and 2-phenylcyclohexane-1,3,5-triones as herbicides” (Syngenta Limited, priority 2007, dated 2014).
